Data: ChEMBL document CHEMBL2321799 (J Med Chem, 2013)

Columns and labels:
PC-3 = experiment: Cytotoxicity against human PC3 cells assessed as LDH release at 25 to 100 uM after 2 hrs by ELISA; assay type: cell-based; conditions: pc-3, 2 h
Ephrin type-B receptor 4 = biological target: T1, Ephrin type-B receptor 4 (Homo sapiens, UniProt P54760); experiment: Displacement of ephrin-B1-Fc from EphB4 receptor Fc ectodomain (unknown origin) after 1 hr by ELISA
T1 sequence (P54760 whole entry): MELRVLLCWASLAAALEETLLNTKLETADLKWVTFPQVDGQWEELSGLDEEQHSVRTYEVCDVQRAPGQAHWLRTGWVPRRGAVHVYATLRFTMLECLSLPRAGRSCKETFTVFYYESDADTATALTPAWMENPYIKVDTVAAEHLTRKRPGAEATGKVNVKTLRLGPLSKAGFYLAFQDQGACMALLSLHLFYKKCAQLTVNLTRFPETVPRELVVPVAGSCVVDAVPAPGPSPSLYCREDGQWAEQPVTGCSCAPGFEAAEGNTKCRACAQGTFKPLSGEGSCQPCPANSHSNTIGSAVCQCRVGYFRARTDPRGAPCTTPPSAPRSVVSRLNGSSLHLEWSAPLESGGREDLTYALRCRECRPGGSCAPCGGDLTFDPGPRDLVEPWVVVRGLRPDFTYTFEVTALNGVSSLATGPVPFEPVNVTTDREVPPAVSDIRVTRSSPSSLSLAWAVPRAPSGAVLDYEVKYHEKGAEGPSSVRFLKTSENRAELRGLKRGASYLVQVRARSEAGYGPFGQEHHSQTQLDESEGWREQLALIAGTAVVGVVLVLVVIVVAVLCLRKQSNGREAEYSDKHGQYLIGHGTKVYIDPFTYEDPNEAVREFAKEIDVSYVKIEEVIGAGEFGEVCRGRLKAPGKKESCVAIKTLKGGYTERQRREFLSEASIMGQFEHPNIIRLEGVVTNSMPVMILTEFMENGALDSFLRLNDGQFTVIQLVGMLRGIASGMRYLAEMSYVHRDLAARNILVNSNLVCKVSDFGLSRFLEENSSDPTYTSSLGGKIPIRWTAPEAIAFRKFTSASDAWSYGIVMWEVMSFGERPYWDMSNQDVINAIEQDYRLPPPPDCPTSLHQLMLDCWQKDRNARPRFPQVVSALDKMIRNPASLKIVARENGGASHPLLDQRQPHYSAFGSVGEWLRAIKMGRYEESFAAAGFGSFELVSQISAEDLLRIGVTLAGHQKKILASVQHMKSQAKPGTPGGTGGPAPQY

Ephrin type-B receptor 6 = biological target: T2, Ephrin type-B receptor 6 (Homo sapiens, UniProt O15197); experiment: Displacement of ephrin-B1-Fc from EphB6 receptor Fc ectodomain (unknown origin) after 1 hr by ELISA
T2 sequence (O15197 whole entry): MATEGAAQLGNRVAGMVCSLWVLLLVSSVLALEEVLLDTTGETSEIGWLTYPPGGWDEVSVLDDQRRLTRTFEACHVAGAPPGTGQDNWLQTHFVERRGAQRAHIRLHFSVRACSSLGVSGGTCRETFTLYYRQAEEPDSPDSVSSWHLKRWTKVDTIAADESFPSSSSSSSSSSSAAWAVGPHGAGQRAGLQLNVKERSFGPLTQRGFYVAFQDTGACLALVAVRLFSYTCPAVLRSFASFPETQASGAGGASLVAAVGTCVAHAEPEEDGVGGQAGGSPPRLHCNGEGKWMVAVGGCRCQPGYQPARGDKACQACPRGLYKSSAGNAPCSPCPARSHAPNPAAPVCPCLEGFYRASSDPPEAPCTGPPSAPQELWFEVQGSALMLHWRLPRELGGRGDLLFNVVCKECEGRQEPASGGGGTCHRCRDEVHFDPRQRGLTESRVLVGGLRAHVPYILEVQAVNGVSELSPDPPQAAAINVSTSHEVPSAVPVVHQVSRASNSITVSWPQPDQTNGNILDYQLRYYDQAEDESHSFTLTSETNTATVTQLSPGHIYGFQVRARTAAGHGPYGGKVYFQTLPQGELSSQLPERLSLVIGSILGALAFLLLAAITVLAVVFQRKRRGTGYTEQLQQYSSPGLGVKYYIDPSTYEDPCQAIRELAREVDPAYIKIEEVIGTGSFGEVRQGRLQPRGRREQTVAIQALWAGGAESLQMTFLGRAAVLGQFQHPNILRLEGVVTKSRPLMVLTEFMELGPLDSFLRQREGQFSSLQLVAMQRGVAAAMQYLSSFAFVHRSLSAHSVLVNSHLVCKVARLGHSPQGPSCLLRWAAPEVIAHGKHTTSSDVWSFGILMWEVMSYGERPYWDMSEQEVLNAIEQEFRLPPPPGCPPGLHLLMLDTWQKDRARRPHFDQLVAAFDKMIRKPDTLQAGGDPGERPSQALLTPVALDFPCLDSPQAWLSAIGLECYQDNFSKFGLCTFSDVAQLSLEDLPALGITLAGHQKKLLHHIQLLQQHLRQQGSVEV

Ephrin type-A receptor 8 = biological target: T3, Ephrin type-A receptor 8 (Homo sapiens, UniProt P29322); experiment: Displacement of ephrin-A1-Fc from EphA8 receptor Fc ectodomain (unknown origin) after 1 hr by ELISA
T3 sequence (P29322 whole entry): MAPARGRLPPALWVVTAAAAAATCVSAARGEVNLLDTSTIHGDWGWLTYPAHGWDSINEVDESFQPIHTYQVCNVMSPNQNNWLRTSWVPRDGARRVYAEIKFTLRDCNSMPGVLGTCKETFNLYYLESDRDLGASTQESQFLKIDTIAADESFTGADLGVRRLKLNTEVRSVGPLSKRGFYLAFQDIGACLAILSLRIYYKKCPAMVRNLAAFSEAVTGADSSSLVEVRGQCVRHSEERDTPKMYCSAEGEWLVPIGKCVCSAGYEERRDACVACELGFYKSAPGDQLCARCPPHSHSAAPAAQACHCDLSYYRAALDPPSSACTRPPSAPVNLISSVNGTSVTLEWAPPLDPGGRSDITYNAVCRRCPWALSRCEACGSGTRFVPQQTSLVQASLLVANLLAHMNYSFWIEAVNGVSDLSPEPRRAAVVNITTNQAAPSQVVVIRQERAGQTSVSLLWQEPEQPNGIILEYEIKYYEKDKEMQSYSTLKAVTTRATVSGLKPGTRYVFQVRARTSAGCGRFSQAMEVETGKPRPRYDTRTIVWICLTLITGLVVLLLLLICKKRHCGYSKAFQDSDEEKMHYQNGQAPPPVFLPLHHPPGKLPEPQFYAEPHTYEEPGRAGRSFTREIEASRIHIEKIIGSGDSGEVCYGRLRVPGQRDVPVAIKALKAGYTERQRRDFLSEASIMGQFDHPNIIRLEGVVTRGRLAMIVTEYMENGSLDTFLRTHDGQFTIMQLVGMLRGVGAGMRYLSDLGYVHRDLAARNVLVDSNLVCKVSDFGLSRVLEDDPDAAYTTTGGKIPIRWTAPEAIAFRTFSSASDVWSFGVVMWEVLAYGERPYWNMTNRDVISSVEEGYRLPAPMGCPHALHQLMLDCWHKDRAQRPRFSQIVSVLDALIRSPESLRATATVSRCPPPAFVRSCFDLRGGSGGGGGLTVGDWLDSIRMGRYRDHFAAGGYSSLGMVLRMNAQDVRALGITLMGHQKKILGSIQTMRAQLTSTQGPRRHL

Ephrin type-B receptor 1 = biological target: T4, Ephrin type-B receptor 1 (Homo sapiens, UniProt P54762); experiment: Displacement of ephrin-B1-Fc from EphB1 receptor Fc ectodomain (unknown origin) after 1 hr by ELISA
T4 sequence (P54762 whole entry): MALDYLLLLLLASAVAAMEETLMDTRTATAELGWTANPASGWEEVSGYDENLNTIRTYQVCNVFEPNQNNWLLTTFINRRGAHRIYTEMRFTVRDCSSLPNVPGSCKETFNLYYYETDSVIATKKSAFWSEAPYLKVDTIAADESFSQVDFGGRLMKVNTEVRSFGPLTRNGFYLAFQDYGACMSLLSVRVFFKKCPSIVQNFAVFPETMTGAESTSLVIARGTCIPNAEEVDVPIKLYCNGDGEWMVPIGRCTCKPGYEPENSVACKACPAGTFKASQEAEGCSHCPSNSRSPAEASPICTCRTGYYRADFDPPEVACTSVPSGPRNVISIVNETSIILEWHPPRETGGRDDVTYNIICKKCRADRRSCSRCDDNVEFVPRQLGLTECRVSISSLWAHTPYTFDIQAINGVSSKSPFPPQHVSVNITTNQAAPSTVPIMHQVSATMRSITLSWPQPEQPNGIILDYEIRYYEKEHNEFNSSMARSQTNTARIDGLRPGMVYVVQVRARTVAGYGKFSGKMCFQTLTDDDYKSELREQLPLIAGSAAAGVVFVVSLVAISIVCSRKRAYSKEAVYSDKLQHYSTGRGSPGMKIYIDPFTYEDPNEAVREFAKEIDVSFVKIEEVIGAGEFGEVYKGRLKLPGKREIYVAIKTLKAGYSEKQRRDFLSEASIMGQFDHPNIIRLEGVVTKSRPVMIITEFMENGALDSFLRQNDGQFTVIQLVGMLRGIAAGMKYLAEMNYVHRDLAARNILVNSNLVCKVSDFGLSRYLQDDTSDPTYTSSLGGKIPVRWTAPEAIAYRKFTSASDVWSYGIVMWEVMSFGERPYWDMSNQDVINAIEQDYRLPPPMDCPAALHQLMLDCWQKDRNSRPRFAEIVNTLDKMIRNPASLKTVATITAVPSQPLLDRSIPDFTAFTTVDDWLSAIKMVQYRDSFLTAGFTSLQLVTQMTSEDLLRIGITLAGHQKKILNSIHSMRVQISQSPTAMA

Ephrin type-A receptor 6 = biological target: T5, Ephrin type-A receptor 6 (Homo sapiens, UniProt Q9UF33); experiment: Displacement of ephrin-A1-Fc from EphA6 receptor Fc ectodomain (unknown origin) after 1 hr by ELISA
T5 sequence (Q9UF33 whole entry): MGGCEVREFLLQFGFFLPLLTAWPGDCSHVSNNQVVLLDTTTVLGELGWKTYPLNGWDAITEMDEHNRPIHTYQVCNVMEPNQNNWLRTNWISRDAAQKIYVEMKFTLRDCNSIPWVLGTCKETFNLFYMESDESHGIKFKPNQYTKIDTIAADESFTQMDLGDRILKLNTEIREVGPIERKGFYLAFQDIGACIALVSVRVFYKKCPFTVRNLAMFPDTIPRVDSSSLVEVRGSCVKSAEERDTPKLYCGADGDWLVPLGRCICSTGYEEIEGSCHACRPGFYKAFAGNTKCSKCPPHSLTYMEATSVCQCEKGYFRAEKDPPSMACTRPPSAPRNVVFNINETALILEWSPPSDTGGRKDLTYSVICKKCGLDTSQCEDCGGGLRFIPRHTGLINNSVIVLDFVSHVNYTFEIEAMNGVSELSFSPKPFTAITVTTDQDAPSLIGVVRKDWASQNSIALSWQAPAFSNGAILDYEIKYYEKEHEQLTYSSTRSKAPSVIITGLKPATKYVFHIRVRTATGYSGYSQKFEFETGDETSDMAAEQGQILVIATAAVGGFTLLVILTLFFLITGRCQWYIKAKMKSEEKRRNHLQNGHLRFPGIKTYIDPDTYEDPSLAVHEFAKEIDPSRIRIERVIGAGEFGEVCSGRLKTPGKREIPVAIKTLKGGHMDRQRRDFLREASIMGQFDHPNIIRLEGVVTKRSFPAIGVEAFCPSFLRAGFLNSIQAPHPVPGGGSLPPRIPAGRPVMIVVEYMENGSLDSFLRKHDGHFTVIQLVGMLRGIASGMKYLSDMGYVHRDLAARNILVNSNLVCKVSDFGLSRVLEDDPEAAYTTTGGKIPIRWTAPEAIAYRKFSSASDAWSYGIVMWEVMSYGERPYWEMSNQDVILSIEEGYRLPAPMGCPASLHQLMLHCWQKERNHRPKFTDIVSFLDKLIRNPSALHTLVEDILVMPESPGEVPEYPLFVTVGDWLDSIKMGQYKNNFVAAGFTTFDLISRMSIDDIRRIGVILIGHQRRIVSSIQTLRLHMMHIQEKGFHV

Ephrin type-A receptor 7 = Ephrin type-A receptor 7 (Homo sapiens, UniProt Q15375); experiment: Displacement of ephrin-A1-Fc from EphA7 receptor Fc ectodomain (unknown origin) after 1 hr by ELISA
Sequence of Ephrin type-A receptor 7 (Q15375 whole entry, the tested form may be a part): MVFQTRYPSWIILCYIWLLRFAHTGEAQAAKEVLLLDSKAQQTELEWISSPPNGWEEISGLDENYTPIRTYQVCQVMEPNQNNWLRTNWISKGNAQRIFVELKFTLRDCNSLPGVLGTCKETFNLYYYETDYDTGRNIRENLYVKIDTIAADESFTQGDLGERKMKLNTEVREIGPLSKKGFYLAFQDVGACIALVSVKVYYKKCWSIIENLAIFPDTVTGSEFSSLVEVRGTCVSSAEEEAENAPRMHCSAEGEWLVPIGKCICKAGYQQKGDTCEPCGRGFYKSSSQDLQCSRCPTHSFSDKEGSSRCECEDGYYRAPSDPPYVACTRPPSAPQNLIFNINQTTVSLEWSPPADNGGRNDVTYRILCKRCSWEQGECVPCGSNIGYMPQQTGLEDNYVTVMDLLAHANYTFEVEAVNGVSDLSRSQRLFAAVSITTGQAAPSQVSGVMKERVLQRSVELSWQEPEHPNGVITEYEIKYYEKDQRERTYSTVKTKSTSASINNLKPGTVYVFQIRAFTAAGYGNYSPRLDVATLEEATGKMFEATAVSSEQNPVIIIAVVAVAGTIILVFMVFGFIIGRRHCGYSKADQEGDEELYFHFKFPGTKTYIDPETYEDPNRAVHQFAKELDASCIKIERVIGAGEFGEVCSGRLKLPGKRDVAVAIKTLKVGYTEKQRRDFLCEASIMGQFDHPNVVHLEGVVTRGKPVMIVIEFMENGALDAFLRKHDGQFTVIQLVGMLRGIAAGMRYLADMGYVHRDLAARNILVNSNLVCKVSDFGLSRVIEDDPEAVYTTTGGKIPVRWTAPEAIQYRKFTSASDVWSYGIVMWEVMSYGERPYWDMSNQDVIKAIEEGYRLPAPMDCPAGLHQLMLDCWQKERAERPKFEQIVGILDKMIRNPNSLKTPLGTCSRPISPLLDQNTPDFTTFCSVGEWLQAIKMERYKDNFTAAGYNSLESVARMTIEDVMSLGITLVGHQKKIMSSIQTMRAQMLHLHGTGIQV

Ephrin type-A receptor 5 = Ephrin type-A receptor 5 (Homo sapiens, UniProt P54756); experiment: Displacement of ephrin-A1-Fc from EphA5 receptor Fc ectodomain (unknown origin) after 1 hr by ELISA
Sequence of Ephrin type-A receptor 5 (P54756 whole entry, the tested form may be a part): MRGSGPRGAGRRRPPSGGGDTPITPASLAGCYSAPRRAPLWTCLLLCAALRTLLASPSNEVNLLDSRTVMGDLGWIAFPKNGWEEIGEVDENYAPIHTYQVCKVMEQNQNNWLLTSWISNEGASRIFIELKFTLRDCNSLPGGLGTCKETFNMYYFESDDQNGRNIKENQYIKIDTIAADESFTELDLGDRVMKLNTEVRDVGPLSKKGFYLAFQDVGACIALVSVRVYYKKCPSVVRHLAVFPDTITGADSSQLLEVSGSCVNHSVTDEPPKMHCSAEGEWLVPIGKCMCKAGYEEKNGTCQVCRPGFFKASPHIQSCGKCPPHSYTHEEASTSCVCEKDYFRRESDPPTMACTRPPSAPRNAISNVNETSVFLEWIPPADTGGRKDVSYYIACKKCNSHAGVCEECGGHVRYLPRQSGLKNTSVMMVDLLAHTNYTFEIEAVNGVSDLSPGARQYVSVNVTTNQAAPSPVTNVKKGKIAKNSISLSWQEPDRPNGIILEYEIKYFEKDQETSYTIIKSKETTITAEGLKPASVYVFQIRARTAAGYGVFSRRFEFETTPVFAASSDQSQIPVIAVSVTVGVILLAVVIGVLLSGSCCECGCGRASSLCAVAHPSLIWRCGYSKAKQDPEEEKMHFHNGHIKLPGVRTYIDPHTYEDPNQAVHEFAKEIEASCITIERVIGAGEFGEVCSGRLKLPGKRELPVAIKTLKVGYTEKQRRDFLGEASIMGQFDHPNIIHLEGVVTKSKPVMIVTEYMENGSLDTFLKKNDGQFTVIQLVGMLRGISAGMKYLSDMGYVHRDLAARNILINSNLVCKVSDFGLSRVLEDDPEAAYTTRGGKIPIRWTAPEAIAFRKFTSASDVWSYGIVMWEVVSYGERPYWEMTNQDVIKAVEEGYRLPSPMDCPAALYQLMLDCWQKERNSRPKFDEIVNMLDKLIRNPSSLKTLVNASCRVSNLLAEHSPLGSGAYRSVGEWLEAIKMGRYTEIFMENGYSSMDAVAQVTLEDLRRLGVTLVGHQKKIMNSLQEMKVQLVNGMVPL

Ephrin type-A receptor 4 = Ephrin type-A receptor 4 (Homo sapiens, UniProt P54764); experiment: Displacement of ephrin-A1-Fc from EphA4 receptor Fc ectodomain (unknown origin) after 1 hr by ELISA
Sequence of Ephrin type-A receptor 4 (P54764 whole entry, the tested form may be a part): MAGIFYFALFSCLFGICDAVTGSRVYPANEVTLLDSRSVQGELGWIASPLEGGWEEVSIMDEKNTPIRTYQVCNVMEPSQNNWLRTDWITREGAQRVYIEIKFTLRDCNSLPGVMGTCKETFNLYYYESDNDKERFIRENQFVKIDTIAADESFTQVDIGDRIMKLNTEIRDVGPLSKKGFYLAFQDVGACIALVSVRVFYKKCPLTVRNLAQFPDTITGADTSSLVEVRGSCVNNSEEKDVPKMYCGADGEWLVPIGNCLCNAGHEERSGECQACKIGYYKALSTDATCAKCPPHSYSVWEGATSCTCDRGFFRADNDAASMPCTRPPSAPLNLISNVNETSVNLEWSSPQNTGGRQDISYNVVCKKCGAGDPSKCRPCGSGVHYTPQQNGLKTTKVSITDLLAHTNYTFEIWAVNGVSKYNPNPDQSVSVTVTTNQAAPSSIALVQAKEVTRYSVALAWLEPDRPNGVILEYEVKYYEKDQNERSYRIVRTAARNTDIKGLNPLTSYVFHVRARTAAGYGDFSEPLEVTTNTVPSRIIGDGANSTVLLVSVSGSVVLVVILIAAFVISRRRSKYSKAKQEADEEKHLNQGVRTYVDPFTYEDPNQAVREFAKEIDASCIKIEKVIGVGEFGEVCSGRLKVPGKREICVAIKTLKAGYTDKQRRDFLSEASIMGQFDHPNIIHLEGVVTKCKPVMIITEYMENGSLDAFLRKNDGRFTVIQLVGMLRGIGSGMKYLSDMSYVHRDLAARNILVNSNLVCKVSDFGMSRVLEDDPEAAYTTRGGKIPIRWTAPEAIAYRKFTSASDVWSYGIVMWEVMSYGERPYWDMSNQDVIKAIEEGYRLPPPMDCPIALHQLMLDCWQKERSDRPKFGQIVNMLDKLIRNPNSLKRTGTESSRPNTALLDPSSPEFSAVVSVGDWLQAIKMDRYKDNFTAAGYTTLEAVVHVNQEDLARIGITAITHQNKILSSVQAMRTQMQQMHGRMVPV

Ephrin type-A receptor 2 [1] = biological target: T6, Ephrin type-A receptor 2 (Homo sapiens, UniProt P29317); experiment: Inhibition of ephrin-A1-Fc binding to EphA2-Fc receptor (unknown origin) after 1 hr by ELISA
T6 sequence (P29317 whole entry): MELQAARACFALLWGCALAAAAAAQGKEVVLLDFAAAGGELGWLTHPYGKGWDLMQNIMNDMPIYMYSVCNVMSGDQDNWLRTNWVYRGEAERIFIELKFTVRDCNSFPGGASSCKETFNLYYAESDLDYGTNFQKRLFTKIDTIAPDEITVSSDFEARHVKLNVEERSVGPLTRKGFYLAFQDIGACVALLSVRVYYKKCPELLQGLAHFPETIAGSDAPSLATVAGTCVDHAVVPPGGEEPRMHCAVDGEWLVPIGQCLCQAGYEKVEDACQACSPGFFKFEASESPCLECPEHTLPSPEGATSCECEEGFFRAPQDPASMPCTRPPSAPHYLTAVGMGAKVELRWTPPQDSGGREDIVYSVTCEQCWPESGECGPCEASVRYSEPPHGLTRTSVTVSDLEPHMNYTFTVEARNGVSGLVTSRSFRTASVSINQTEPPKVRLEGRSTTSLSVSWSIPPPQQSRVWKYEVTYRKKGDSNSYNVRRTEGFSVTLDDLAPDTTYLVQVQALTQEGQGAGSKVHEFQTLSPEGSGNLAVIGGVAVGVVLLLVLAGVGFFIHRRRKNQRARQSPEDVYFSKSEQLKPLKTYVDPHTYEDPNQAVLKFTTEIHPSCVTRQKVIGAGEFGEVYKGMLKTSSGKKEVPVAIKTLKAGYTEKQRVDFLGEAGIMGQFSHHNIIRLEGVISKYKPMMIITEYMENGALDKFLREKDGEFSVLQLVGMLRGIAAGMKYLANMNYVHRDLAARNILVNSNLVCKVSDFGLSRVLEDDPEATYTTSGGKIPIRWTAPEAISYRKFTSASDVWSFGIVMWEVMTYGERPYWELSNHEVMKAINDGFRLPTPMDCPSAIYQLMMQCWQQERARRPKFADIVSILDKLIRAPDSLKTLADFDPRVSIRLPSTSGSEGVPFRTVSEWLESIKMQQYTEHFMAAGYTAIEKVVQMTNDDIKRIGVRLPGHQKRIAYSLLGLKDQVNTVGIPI

Ephrin type-A receptor 2 [2] = biological target: T6, Ephrin type-A receptor 2; experiment: Antagonist activity at EphA2 in human PC3 cells assessed as inhibition of ephrin-A1-Fc-stimulated EphA2 phosphorylation pretreated for 20 mins by sandwich ELISA; assay type: cell-based, PC-3

C[C@H](CCC(=O)N[C@@H](Cc1c[nH]c2ccccc12)C(=O)O)[C@H]1CC[C@H]2[C@@H]3CC[C@@H]4C[C@H](O)CC[C@]4(C)[C@H]3CC[C@]12C
Activity (PC-3): Non-toxic | IC50 (Ephrin type-B receptor 4): 4.4 µM | IC50 (Ephrin type-B receptor 6): 5.8 µM | IC50 (Ephrin type-A receptor 8): 1.5 µM | IC50 (Ephrin type-B receptor 1): 3.8 µM | IC50 (Ephrin type-A receptor 6): 1.5 µM | IC50 (Ephrin type-A receptor 7): 2.1 µM | IC50 (Ephrin type-A receptor 5): 2.4 µM | IC50 (Ephrin type-A receptor 4): 2.7 µM

CC(=O)CNC(=O)CC[C@@H](C)[C@H]1CC[C@H]2[C@@H]3CC[C@@H]4C[C@H](O)CC[C@]4(C)[C@H]3CC[C@]12C
IC50 (Ephrin type-A receptor 2 [1]): > 316 µM

C[C@H](CCC(=O)N[C@@H](CC(N)=O)C(=O)O)[C@H]1CC[C@H]2[C@@H]3CC[C@@H]4C[C@H](O)CC[C@]4(C)[C@H]3CC[C@]12C
IC50 (Ephrin type-A receptor 2 [1]): > 316 µM

C[C@H](CCC(=O)N[C@H](CC(N)=O)C(=O)O)[C@H]1CC[C@H]2[C@@H]3CC[C@@H]4C[C@H](O)CC[C@]4(C)[C@H]3CC[C@]12C
IC50 (Ephrin type-A receptor 2 [1]): > 316 µM

C[C@H](CCC(=O)N[C@@H](CC(=O)O)C(=O)O)[C@H]1CC[C@H]2[C@@H]3CC[C@@H]4C[C@H](O)CC[C@]4(C)[C@H]3CC[C@]12C
IC50 (Ephrin type-A receptor 2 [1]): > 316 µM

C[C@H](CCC(=O)N[C@H](CC(=O)O)C(=O)O)[C@H]1CC[C@H]2[C@@H]3CC[C@@H]4C[C@H](O)CC[C@]4(C)[C@H]3CC[C@]12C
IC50 (Ephrin type-A receptor 2 [1]): > 316 µM

C[C@H](CCC(=O)NCC(=O)O)[C@H]1CC[C@H]2[C@@H]3CC[C@@H]4C[C@H](O)CC[C@]4(C)[C@H]3CC[C@]12C [LITHOGLYCOCHOLATE]
IC50 (Ephrin type-A receptor 2 [2]): 138 µM | IC50 (Ephrin type-A receptor 2 [1]): 49 µM
